Measurements as given in publication PMC9306661 (British Journal of Pharmacology, 2021).

Legend:
Cel-AVR-14B/GLC-2 = molecular target: T1, Cel-AVR-14B/GLC-2 (Caenorhabditis elegans, UniProt Q17328+Q17369); assay: two-electrode voltage clamp, Xenopus oocytes; format: cell-based
T1 sequence (Q17369 22-430): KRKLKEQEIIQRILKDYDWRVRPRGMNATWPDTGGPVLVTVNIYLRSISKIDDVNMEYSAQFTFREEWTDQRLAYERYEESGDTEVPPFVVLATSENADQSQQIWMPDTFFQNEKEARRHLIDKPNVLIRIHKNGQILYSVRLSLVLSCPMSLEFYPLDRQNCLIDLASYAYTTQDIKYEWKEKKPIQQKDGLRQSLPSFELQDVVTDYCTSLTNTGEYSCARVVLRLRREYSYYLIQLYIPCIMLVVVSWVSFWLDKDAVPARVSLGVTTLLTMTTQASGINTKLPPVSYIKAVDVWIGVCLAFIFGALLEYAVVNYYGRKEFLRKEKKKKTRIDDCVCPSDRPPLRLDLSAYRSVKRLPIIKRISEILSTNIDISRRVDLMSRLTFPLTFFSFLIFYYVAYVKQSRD
T1 sequence (Q17328 23-434): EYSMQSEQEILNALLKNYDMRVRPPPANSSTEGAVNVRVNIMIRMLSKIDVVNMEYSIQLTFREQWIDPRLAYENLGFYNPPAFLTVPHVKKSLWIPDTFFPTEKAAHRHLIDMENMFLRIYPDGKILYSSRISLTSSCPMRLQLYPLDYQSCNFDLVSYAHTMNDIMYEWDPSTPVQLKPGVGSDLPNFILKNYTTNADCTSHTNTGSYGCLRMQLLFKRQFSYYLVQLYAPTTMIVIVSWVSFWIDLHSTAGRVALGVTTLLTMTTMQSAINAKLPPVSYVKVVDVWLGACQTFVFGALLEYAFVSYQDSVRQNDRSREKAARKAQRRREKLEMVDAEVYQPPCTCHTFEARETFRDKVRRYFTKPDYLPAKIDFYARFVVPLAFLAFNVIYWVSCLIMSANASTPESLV

Pun-AVR-14B/GLC-2 = molecular target: T2, Pun-AVR-14B/GLC-2 (Parascaris univalens, UniProt A0A894K7G1+A0A894KE58); assay: two-electrode voltage clamp, Xenopus oocytes; format: cell-based
T2 sequence (A0A894K7G1 19-428): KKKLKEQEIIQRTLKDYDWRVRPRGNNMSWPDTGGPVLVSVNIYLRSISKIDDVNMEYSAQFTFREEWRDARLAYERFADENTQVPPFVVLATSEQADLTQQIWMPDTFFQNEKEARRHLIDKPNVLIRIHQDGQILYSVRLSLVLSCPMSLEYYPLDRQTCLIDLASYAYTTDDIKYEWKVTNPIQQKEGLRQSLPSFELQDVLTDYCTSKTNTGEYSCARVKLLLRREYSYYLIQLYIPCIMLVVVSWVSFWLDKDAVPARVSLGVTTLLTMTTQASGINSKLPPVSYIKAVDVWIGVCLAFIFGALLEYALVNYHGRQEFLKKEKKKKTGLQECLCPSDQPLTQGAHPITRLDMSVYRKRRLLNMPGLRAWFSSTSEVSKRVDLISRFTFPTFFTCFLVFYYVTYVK
T2 sequence (A0A894KE58 21-448): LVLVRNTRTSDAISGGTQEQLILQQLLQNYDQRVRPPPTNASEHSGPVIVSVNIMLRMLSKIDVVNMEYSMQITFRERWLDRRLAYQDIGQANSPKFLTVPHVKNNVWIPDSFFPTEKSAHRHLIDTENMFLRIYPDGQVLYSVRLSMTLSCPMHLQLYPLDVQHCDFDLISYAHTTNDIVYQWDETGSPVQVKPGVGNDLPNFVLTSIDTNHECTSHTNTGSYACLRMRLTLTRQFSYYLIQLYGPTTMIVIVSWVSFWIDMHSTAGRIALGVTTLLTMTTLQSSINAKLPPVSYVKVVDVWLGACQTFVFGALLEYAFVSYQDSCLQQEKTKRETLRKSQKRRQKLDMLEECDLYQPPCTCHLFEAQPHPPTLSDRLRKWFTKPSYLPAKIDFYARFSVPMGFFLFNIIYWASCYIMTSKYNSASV

Work on `N[C@@H](CCC(=O)O)C(=O)O` [glutamate] yielded an EC50 (Cel-AVR-14B/GLC-2) of 19.4 µM and an EC50 (Pun-AVR-14B/GLC-2) of 10.9 µM.
